Data: article PMC8191578, “Targeting the TLR2 Receptor With a Novel Thymopentin-Derived Peptide Modulates Immune Responses” (Frontiers in Immunology, 2021)
Marks after values point to notes of the source that are not given here. Where no end group is shown, it is not given here.

What was measured:
[1] = Ex vivo stability in human serum; format: in vitro ADME; settings: human serum (Sigma), lipids removed by centrifugation, pre-incubated 15 min at 37°C, peptide 10 µg/mL, HPLC, logarithm-linear regression, mean ± SD, n=5
Protocol: Human serum was purchased from Sigma (St. Louis, MO, USA). […] The half-lives of CATH2, TP5, and CbTP (10 µg/mL) were evaluated in vitro following incubation at 37°C in human serum at different time points. The samples were collected into prechilled tubes containing 1 mL of acidic acetone (hydrochloric acid/acetone/H2O, 1:40:5, by volume) and centrifuged at 2,000 ×g for 20 min at 4°C.
The obtained precipitates were dried in vacuo, after which the dried precipitates were dissolved in 0.5 mL of 1 M acetic acid. The peptide analysis was carried out according to the protocol for the study of TP5 using HPLC ([26]). The half-lives of the target peptides were calculated by a logarithm-linear regression analysis of the peptide concentrations.

recombinant TLR2 = biological target: T1, recombinant TLR2 (Homo sapiens, UniProt O60603); test: Surface plasmon resonance binding to immobilized TLR2; settings: SPR, ProteOn XPR36, GLH chip, 25°C, PBS with 1% Tween 20; CbTP 0-10 μM; 1:1 model; read-out: association rate constant Ka
T1 construct: purchased R&D Systems
T1 sequence (O60603 21-784, species assumed): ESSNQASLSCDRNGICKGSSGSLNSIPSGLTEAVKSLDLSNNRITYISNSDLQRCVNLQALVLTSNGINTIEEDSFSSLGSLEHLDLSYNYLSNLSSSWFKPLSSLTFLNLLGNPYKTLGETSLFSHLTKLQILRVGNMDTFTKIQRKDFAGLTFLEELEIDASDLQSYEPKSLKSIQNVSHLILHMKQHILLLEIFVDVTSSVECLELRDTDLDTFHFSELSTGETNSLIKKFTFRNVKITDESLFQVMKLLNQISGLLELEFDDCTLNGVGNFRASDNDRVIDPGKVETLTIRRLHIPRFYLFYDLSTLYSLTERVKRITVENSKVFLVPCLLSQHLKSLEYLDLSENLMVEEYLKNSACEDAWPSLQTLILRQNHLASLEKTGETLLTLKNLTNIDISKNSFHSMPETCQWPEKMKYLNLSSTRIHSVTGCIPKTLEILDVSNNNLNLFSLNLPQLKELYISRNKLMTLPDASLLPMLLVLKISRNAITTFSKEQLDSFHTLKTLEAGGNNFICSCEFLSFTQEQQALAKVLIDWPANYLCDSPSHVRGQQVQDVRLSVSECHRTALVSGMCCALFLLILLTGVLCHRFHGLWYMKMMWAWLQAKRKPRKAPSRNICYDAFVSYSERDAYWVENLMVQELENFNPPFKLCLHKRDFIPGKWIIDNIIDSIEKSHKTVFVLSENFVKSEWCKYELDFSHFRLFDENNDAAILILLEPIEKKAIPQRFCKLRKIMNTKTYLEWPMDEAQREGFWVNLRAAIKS
Protocol: Surface plasmon resonance (SPR) experiments were performed using a ProteOn XPR36 instrument (Bio-Rad, Hercules, CA, USA) with a ProteOn GLH sensor chip (Bio-Rad) at 25°C. The running buffer (PBS with 1% Tween 20) was continuously passed into reaction chamber. An SPR sensing chip with recombinant TLR2 (R&D Systems, Minneapolis, MN, USA) was immobilized by amino coupling to capture CbTP, as described in the manufacturer’s protocol. The binding affinity of CbTP to the TLR2-covered surface was examined in varying concentrations of the CbTP peptide (0, 1.25, 2.5, 5, and 10 μM). The running buffer was injected into the empty channels as a reference. To regenerate the chip surface at the end of each experiment, 10 mM Gly-HCl buffer (pH 2.5) was injected. Data analysis was conducted using ProteOn manager software (version 2.0). The binding curves were processed for the start injection alignment and baseline. The reference-subtracted sensorgram was then fitted to the curves labeling a homogeneous 1:1 model and protein surface data were grouped together to fit the association (K a) and dissociation (K d) rate constants. The equilibrium dissociation constant (KD) for the peptide-TLR2 interaction was calculated using the following equation: […]

Sequence | t1/2 in human serum [1] | kon (recombinant TLR2) [M⁻¹ s⁻¹]
RFGRFLRKIRRFRPKVTITIQGSARFG [CATH2, Cathelicidin-2, reference compound] | 302 ± 34.5^a min | 
RFGRFLRKIRRFRRKDVY [CbTP] | 353 ± 41.3^a min | 3.61e+08
